These results are taken from patent publication US5191079A, “Quinolinecarboxylic acid derivatives” (priority 1990, dated 1993).

Molecules are shown by their SMILES. Values after ≈ are worked out from the molar mass of the structure shown. Structures can show the parent of a compound that is named as a salt. Where two headings read alike, the source gives them in different places. Bounds are passed on as bounds.

Data set [1] concerns Staphylococcus epidermidis IAM 1296. Kind of data set: MIC, Experiment 1. It is filed as cell-based. The note with it: IAM1296, S. epidermidis IAM 1296, Gram +, read-out: Min. inhib. concentr. (MIC). The method, then: The compounds of the present invention ([…] and Q) were each dissolved in dimethylsulfoxide to prepare a solution of 5000 μg/ml in concentration. The compounds of the present invention (I, J and K) and the known compound (Y) were each dissolved in sterilized distilled water to prepare a solution of 5000 μg/ml in concentration. […] The test was carried out by a method as appointed by Japan Society of Chemotherapy [cf. Chemotherapy, 29, 76-79 (1981), TOKYO]. As to Streptococcus pneumoniae and Streptococcus pyogenes, Brain heart infusion broth (manufactured by DIFCO) was used as the medium for the preculture thereof, and a heart infusion agar medium containing 5% defibrinated horse blood (manufactured by Nissui Seiyaku K. K., Japan) was used as the medium for the measurement of minimum inhibitory concentration (MIC). As to other microorganisms, a sensitivity test broth (manufactured by Nissui Seiyaku K. K.) was used as the medium for the preculture thereof, and a sensitivity test agar medium (manufactured by Nissui Seiyaku K. K.) was used as the medium for the measurement of MIC.

Data set [2] has as its system clinically isolated Enterococcus faecalis. Description: In vitro antibacterial activity against clinical isolates, Experiment 2. It is filed as cell-based. The method, boiled down:
(§1)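 Clinical isolates collected Nov. 1988 to Jun. 1989 were precultured in sensitivity test broth. MIC was determined on sensitivity test agar. Compound standard solution was 1000 μg/ml (stock) in sterilized distilled water.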

Data set [3] relates to clinically isolated Enterococcus faecium. The data set is described as above. It is filed as cell-based. Put shortly:
as §1

Data set [4] relates to clinically isolated Staphylococcus aureus. The description is as above. It is filed as cell-based. The method, boiled down:
as §1

Data set [5] deals with Staphylococcus aureus IID 803. Description: Effect on treatment of general infectious disease (systemic infection in mice), Experiment 3. It is filed as in vivo, Staphylococcus aureus; ddY male mice. The note with it: for protective effects against infection: Experiment 3, in words; for ED50: Staphylococcus aureus, IID803, 168 h, oral, 1 h after i.p. infection, mice, survival after one week, average of several tests, read-out: 50% effective dose (ED50). The procedure:
Staphylococcus aureus IID 803
The test microorganism was subjected to standing culture in Brain heart infusion broth (manufactured by DIFCO) at 37° C. for 16 to 18 hours. The culture was then diluted with PBS (Dulbecco's phosphate buffered saline) to adjust the concentration of bacteria to 4×10^7 -8×10^7 CFU/ml. The mixture was mixed with an equivalent amount of 10% (w/v) Mucin (BACTO MUCIN BACTERIOLOGICAL, manufactured by Difco Co.) to prepare a bacterial suspension. The thus prepared bacterial suspension (0.5 ml each) was intraperitoneally inoculated to ddY male mice (5 weeks age, weighing 24-27 g, 5 mice in each group), to infect the animals, by which systemic infectious model was prepared.
The mice were daily observed for one week, and from the survival number of mice after one week, the 50% effective dose (ED50) was calculated by Weil method. This test was repeated several times and the average of ED50 was calculated.

The nature of data set [6]: Acute toxicity, Experiment 5. It is filed as in vivo. The note with it: oral, 2000 mg/kg, one week. The procedure: The compound (A) or (B) of the present invention was suspended in distilled water to prepare a suspension in concentration of 200 mg/ml and the compound (C) was suspended in distilled water to prepare a suspension in concentration of 100 mg/ml. The suspension was orally administered to ddY male mice (5 weeks age, weighing 19 to 24 g, 5 mice in each group), which had been fasted for 18 hours, at a rate of 2000 mg/kg body weight of the test compound.

The mark [7] stands for this setting: 25 clinical strains E. faecalis.
The mark [8] stands for this setting: 25 clinical strains E. faecalis, 50% of strains, read-out: MIC50.
[9] abbreviates: 25 clinical strains E. faecalis, 90% of strains, read-out: MIC90.
Where [10] appears, read: 25 clinical strains E. faecium, 50% of strains, read-out: MIC50.
Where [11] appears, read: 25 clinical strains E. faecium, 90% of strains, read-out: MIC90.
[12] abbreviates: 25 clinical strains S. aureus incl. 16 methicillin resistant.
The mark [13] stands for this setting: 25 clinical strains S. aureus incl. 16 methicillin resistant, 50% of strains, read-out: MIC50.
Setting [14] is: 25 clinical strains S. aureus incl. 16 methicillin resistant, 90% of strains, read-out: MIC90.

Usually MIC stands for the lowest concentration found to suppress growth. As a reminder, the MIC50 is the lowest concentration that inhibits either 50% of growth or 50% of the strains tested, depending on the study. One may read the MIC90 as an inhibitory concentration at the 90% level, which refers to growth in some studies and to a panel of isolates in others. A word on the ED50: it is the dose at which the effect has come halfway, by size or by number of responders. Take `CC1CN(c2c(F)cc3c(=O)c(C(=O)O)c4scc5n4c3c2N(C)C5)CCO1` (stereo not shown) [Compound (A), 9,1-(Methylimino)methano-7-fluoro-8-(2-methylmorpholino)-5-oxo-5H-thiazolo[3,2-a]quinoline-4-carboxylic acid]: the MIC in data set [1] was 0.05 mg/L (≈ 0.124 µM); in data set [2] (setting [7]), 0.025 to 3.13 mg/L (≈ 0.062 to 7.76 µM); in data set [3] (25 clinical strains E. faecium), 0.05 to 6.25 mg/L (≈ 0.124 to 15.5 µM); in data set [4] (setting [12]) it was 0.006 to 0.2 mg/L (≈ 0.0149 to 0.496 µM). Besides, the MIC50 in data set [2] (setting [8]) was 0.1 mg/L (≈ 0.248 µM); in data set [3] (setting [10]), 0.78 mg/L (≈ 1.93 µM); in data set [4] (setting [13]), at most 0.006 mg/L. For the same compound, the MIC90 was 3.13 mg/L (≈ 7.76 µM) in data set [2] (setting [9]), 3.13 mg/L (≈ 7.76 µM) in data set [3] (setting [11]) and 0.2 mg/L (≈ 0.496 µM) in data set [4] (setting [14]). Also, the “protective effects against infection” value in data set [5] is reported as “excellent protective effects against infection”. Also, the ED50 in data set [5] was 3.5 mg/kg. Moreover, in data set [6], the death of mice entry was “no death of mice was observed”.

Turning to `CN1Cc2csc3c(C(=O)O)c(=O)c4cc(F)c(N5CCOC(CF)C5)c1c4n23` (stereo not shown) [Compound (C), 9,1-(Methylimino)methano-7-fluoro-8-(2-fluoromethylmorpholino)-5-oxo-5H-thiazolo[3,2-a]quinoline-4-carboxylic acid], the MIC was 0.025 mg/L (≈ 0.0593 µM) in data set [1], 0.05 to 3.13 mg/L (≈ 0.119 to 7.43 µM) in data set [2] (setting [7]), 0.05 to 6.25 mg/L (≈ 0.119 to 14.8 µM) in data set [3] (25 clinical strains E. faecium) and 0.006 to 0.2 mg/L (≈ 0.0142 to 0.475 µM) in data set [4] (setting [12]). The MIC50 in data set [2] (setting [8]) was determined as 0.1 mg/L (≈ 0.237 µM); in data set [3] (setting [10]) it was 0.78 mg/L (≈ 1.85 µM); in data set [4] (setting [13]), 0.013 mg/L (≈ 0.0308 µM). The MIC90 was 3.13 mg/L (≈ 7.43 µM) in data set [2] (setting [9]), 3.13 mg/L (≈ 7.43 µM) in data set [3] (setting [11]) and 0.2 mg/L (≈ 0.475 µM) in data set [4] (setting [14]). The “protective effects against infection” value in data set [5] is recorded as “excellent protective effects against infection”. Besides, the ED50 in data set [5] amounted to 1.9 mg/kg. For the same compound, the death of mice result in data set [6] is reported as “no death of mice was observed”.

With `CN1Cc2csc3c(C(=O)O)c(=O)c4cc(F)c(N5CCN6CCOC[C@H]6C5)c1c4n23` [Compound (F), 9,1-(Methylimino)methano-7-fluoro-8-[(6R)-1,8-diaza-4-oxabicyclo[4.4.0]deca-8-yl]-5-oxo-5H-thiazolo[3,2-a]quinoline-4-carboxylic acid], the MIC is 0.05 mg/L (≈ 0.112 µM) in data set [1], 0.05 to 6.25 mg/L (≈ 0.112 to 14.1 µM) in data set [2] (setting [7]), 0.2 to 6.25 mg/L (≈ 0.45 to 14.1 µM) in data set [3] (25 clinical strains E. faecium) and 0.013 to 0.78 mg/L (≈ 0.0292 to 1.75 µM) in data set [4] (setting [12]). The MIC90 came out at 6.25 mg/L (≈ 14.1 µM) in data set [2], 6.25 mg/L (≈ 14.1 µM) in data set [3] and 0.78 mg/L (≈ 1.75 µM) in data set [4]. The MIC50 was 0.2 mg/L (≈ 0.45 µM) in data set [2] (setting [8]), 1.56 mg/L (≈ 3.51 µM) in data set [3] and 0.025 mg/L (≈ 0.0562 µM) in data set [4]. Besides, the “protective effects against infection” value in data set [5] is given as “excellent protective effects against infection”. Besides, in data set [5], the ED50 was determined as 2.3 mg/kg.

Regarding `COCC1CN(c2c(F)cc3c(=O)c(C(=O)O)c4scc5n4c3c2N(C)C5)CCN1C` (stereo not shown) [Compound (J), 9,1-(Methylimino)methano-7-fluoro-8-(3-methoxymethyl-4-methyl-1-piperazinyl)-5-oxo-5H-thiazolo[3,2-a]quinoline-4-carboxylic acid hydrochloride], the MIC in data set [1] was 0.2 mg/L; in data set [2] (setting [7]) it was 0.2 to 12.5 mg/L; in data set [3] (25 clinical strains E. faecium), 0.39 to 25 mg/L; in data set [4] (setting [12]), 0.05 to 6.25 mg/L. Further, the results for the MIC50 in data set [2], in data set [3] and in data set [4] (setting [13]) were 0.39 mg/L, 3.13 mg/L and 0.1 mg/L, respectively. The figures for the MIC90 in data set [2] (setting [9]), in data set [3] (setting [11]) and in data set [4] (setting [14]) were 12.5 mg/L, 12.5 mg/L and 3.13 mg/L, respectively. Further, the “protective effects against infection” value in data set [5] is reported as “excellent protective effects against infection”. For the same compound, the ED50 in data set [5] came to 4.4 mg/kg.

`CN1CCN(c2c(F)cc3c(=O)c(C(=O)O)c4scc5n4c3c2OC5)CC1` [Compound (Y), 9,1-Epoxymethano-7-fluoro-8-(4-methyl-1-piperazinyl)-5-oxo-5H-thiazolo[3,2-a]quinoline-4-carboxylic acid hydrochloride, reference compound]: the MIC is 0.39 mg/L in data set [1], 0.2 to 6.25 mg/L in data set [2] (setting [7]), 0.39 to 12.5 mg/L in data set [3] (25 clinical strains E. faecium) and 0.05 to 12.5 mg/L in data set [4] (setting [12]). The MIC50 in data set [2] worked out at 0.39 mg/L; in data set [3], 3.13 mg/L; in data set [4] (setting [13]) it was 0.2 mg/L. Moreover, the MIC90 was determined as 6.25 mg/L in data set [2], 6.52 mg/L in data set [3] (setting [11]) and 12.5 mg/L in data set [4] (setting [14]). For the same compound, the median effective dose (ED50) in data set [5] came out at 10.8 mg/kg.
